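Step 1: Grow cells in 96-well plates. Step 2: Expose to compound for 48 hours at 5 concentrations. Step 3: Interpolate endpoints linearly; if unreached, use highest concentration. TGI denotes the concentration required for complete inhibition of growth.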
Key:
Assay in all cases: NCI anticancer screen, dose series, 48 h
786-0 renal = test system: 786-0 renal
BT-549 breast = test system: BT-549 breast
MCF7 breast = test system: MCF7 breast
RPMI-8226 leukemia = test system: RPMI-8226 leukemia
SNB-19 CNS = test system: SNB-19 CNS
PC-3 prostate = test system: PC-3 prostate
HCT-116 colon = test system: HCT-116 colon
SF-295 CNS = test system: SF-295 CNS
SK-OV-3 ovarian = test system: SK-OV-3 ovarian
TK-10 renal = test system: TK-10 renal
DU-145 prostate = test system: DU-145 prostate
UACC-62 melanoma = test system: UACC-62 melanoma
SN12C renal = test system: SN12C renal
UACC-257 melanoma = test system: UACC-257 melanoma
COLO 205 colon = test system: COLO 205 colon
HS 578T breast = test system: HS 578T breast
NCI/ADR-RES ovarian = test system: NCI/ADR-RES ovarian
RXF 393 renal = test system: RXF 393 renal
IGROV1 ovarian = test system: IGROV1 ovarian
U251 CNS = test system: U251 CNS
KM12 colon = test system: KM12 colon
LOX IMVI melanoma = test system: LOX IMVI melanoma
A549 NSCLC = test system: A549 NSCLC
HOP-62 NSCLC = test system: HOP-62 NSCLC
T-47D breast = test system: T-47D breast
OVCAR-4 ovarian = test system: OVCAR-4 ovarian
OVCAR-8 ovarian = test system: OVCAR-8 ovarian
HCC-2998 colon = test system: HCC-2998 colon
M14 melanoma = test system: M14 melanoma
NCI-H23 lung = test system: NCI-H23 lung
SF-539 CNS = test system: SF-539 CNS
SNB-75 CNS = test system: SNB-75 CNS
SK-MEL-28 melanoma = test system: SK-MEL-28 melanoma
MDA-MB-231 breast = test system: MDA-MB-231 breast
MOLT-4 leukemia = test system: MOLT-4 leukemia
CAKI-1 renal = test system: CAKI-1 renal
SK-MEL-5 melanoma = test system: SK-MEL-5 melanoma
CCRF-CEM leukemia = test system: CCRF-CEM leukemia
MALME-3M melanoma = test system: MALME-3M melanoma
SR leukemia = test system: SR leukemia
UO-31 renal = test system: UO-31 renal
OVCAR-5 ovarian = test system: OVCAR-5 ovarian
K-562 leukemia = test system: K-562 leukemia
ACHN renal = test system: ACHN renal
MDA-MB-435 = test system: MDA-MB-435
HT29 colon = test system: HT29 colon
SW-620 colon = test system: SW-620 colon
NCI-H226 lung = test system: NCI-H226 lung
HOP-92 NSCLC = test system: HOP-92 NSCLC
EKVX NSCLC = test system: EKVX NSCLC
MDA-N = test system: MDA-N
NCI-H460 lung = test system: NCI-H460 lung
HL-60(TB) leukemia = test system: HL-60(TB) leukemia
OVCAR-3 ovarian = test system: OVCAR-3 ovarian
A498 renal = test system: A498 renal
NCI-H522 lung = test system: NCI-H522 lung
SF-268 CNS = test system: SF-268 CNS
HCT-15 colon = test system: HCT-15 colon
SK-MEL-2 melanoma = test system: SK-MEL-2 melanoma

`Clc1nc(-c2ccccc2)nc(Cl)c1Cl` was tested, and the TGI (786-0 renal) was 22.8 µM, the TGI (BT-549 breast) was 35.6 µM and the TGI (MCF7 breast) was 24.5 µM. It also gave a TGI (RPMI-8226 leukemia) of 28.1 µM, a TGI (SNB-19 CNS) of over 54.2 µM and a TGI (PC-3 prostate) of 24.6 µM. For the same compound, the TGI (HCT-116 colon) was 17 µM, the TGI (SF-295 CNS) was 31.5 µM and the TGI (SK-OV-3 ovarian) was 27 µM. For the same compound, the TGI (TK-10 renal) was 42.6 µM, the TGI (DU-145 prostate) was 29.9 µM and the TGI (UACC-62 melanoma) was 27.8 µM. It also gave a TGI (SN12C renal) of 31.4 µM, a TGI (UACC-257 melanoma) of 28.2 µM and a TGI (COLO 205 colon) of 23 µM. For the same compound, the TGI (HS 578T breast) was 47.3 µM, the TGI (NCI/ADR-RES ovarian) was 61.3 µM and the TGI (RXF 393 renal) was 18.9 µM. For the same compound, the TGI (IGROV1 ovarian) was 21.6 µM, the TGI (U251 CNS) was 21.5 µM and the TGI (KM12 colon) was 25.3 µM. The TGI (LOX IMVI melanoma) was 5.6 µM, the TGI (A549 NSCLC) was 33.1 µM and the TGI (HOP-62 NSCLC) was 32.3 µM. The TGI (T-47D breast) was 28.5 µM, the TGI (OVCAR-4 ovarian) was 38.9 µM and the TGI (OVCAR-8 ovarian) was 41.2 µM. For the same compound, the TGI (HCC-2998 colon) was 20.5 µM, the TGI (M14 melanoma) was 19.7 µM and the TGI (NCI-H23 lung) was 32.6 µM. For the same compound, the TGI (SF-539 CNS) was 33.9 µM, the TGI (SNB-75 CNS) was 29.1 µM and the TGI (SK-MEL-28 melanoma) was 31.6 µM. The TGI (MDA-MB-231 breast) was 27.1 µM, the TGI (MOLT-4 leukemia) was 15 µM and the TGI (CAKI-1 renal) was 8.62 µM. It also gave a TGI (SK-MEL-5 melanoma) of 26.7 µM, a TGI (CCRF-CEM leukemia) of 7.99 µM and a TGI (MALME-3M melanoma) of 17.6 µM. For the same compound, the TGI (SR leukemia) was 7.53 µM, the TGI (UO-31 renal) was over 57.5 µM and the TGI (OVCAR-5 ovarian) was 30.4 µM. The TGI (K-562 leukemia) was over 43.2 µM, the TGI (ACHN renal) was 9.33 µM and the TGI (MDA-MB-435) was 26.8 µM. The TGI (HT29 colon) was 27.6 µM, the TGI (SW-620 colon) was 15.1 µM and the TGI (NCI-H226 lung) was 28.1 µM. The TGI (HOP-92 NSCLC) was 30.3 µM, the TGI (EKVX NSCLC) was 31.5 µM and the TGI (MDA-N) was 26.6 µM. It also gave a TGI (NCI-H460 lung) of 42.7 µM, a TGI (HL-60(TB) leukemia) of 33 µM and a TGI (OVCAR-3 ovarian) of 21.7 µM. It also gave a TGI (A498 renal) of 31.5 µM, a TGI (NCI-H522 lung) of 9.95 µM and a TGI (SF-268 CNS) of 30.7 µM. For the same compound, the TGI (HCT-15 colon) was 21.2 µM.

`COc1ccc2[nH]c3c(C)c4ncccc4c(C)c3c2c1` gave a TGI (786-0 renal) of 2.85 µM, a TGI (BT-549 breast) of over 10 µM and a TGI (MCF7 breast) of 4.81 µM. It also gave a TGI (RPMI-8226 leukemia) of 7.56 µM, a TGI (SNB-19 CNS) of over 10 µM and a TGI (PC-3 prostate) of over 10 µM. It also gave a TGI (HCT-116 colon) of over 10 µM, a TGI (SF-295 CNS) of 9.26 µM and a TGI (SK-OV-3 ovarian) of over 10 µM. The TGI (TK-10 renal) was over 10 µM, the TGI (DU-145 prostate) was over 10 µM and the TGI (UACC-62 melanoma) was over 10 µM. For the same compound, the TGI (SN12C renal) was over 10 µM, the TGI (UACC-257 melanoma) was over 10 µM and the TGI (COLO 205 colon) was over 10 µM. The TGI (HS 578T breast) was over 10 µM, the TGI (NCI/ADR-RES ovarian) was over 10 µM and the TGI (RXF 393 renal) was 9.39 µM. It also gave a TGI (IGROV1 ovarian) of over 10 µM, a TGI (U251 CNS) of over 10 µM and a TGI (KM12 colon) of 3.87 µM. For the same compound, the TGI (A549 NSCLC) was 4.88 µM, the TGI (HOP-62 NSCLC) was over 10 µM and the TGI (T-47D breast) was over 10 µM. It also gave a TGI (OVCAR-4 ovarian) of over 10 µM, a TGI (OVCAR-8 ovarian) of over 10 µM and a TGI (HCC-2998 colon) of over 10 µM. The TGI (M14 melanoma) was 3.24 µM, the TGI (NCI-H23 lung) was over 10 µM and the TGI (SF-539 CNS) was over 10 µM. The TGI (SNB-75 CNS) was over 10 µM, the TGI (SK-MEL-28 melanoma) was 3.49 µM and the TGI (MDA-MB-231 breast) was over 10 µM. It also gave a TGI (MOLT-4 leukemia) of over 10 µM, a TGI (CAKI-1 renal) of over 10 µM and a TGI (SK-MEL-5 melanoma) of over 10 µM. For the same compound, the TGI (CCRF-CEM leukemia) was over 10 µM, the TGI (MALME-3M melanoma) was 3.42 µM and the TGI (SR leukemia) was over 10 µM. It also gave a TGI (OVCAR-5 ovarian) of over 10 µM, a TGI (K-562 leukemia) of over 10 µM and a TGI (ACHN renal) of over 10 µM. The TGI (MDA-MB-435) was 3.21 µM, the TGI (HT29 colon) was 6.98 µM and the TGI (SW-620 colon) was 4.26 µM. For the same compound, the TGI (NCI-H226 lung) was over 10 µM, the TGI (HOP-92 NSCLC) was over 10 µM and the TGI (EKVX NSCLC) was over 10 µM. It also gave a TGI (MDA-N) of over 10 µM, a TGI (NCI-H460 lung) of 5.46 µM and a TGI (HL-60(TB) leukemia) of 5.85 µM. The TGI (OVCAR-3 ovarian) was 9.09 µM, the TGI (SK-MEL-2 melanoma) was over 10 µM and the TGI (NCI-H522 lung) was over 10 µM. The TGI (SF-268 CNS) was over 10 µM and the TGI (HCT-15 colon) was over 10 µM.

— PubChem BioAssay (NCI)
